Experiments:
[1] = tested on: GM-CSFR/JAK2/STAT5 pathway in CSTF-1 cells; assay: CSTF-1 cell-based reporter assay (beta-lactamase reporter, GM-CSF stimulated); conditions: Homo sapiens, GM-CSF at 2 ng/mL, 4 hours, read-out: Cell Assay: CS TF-1 reporter assay IC50
Procedure: CSTF-1 cells are derived from the human erythroleukemia cell line that is growth dependent on GM-CSF and has an intact GM-CSFR/JAK2/STAT5 pathway. The cell line contains stably integrated beta-lactamase reporter gene under the control of the […] (irf 1) response element recognized by the activated transcription factor STAT5. csTF-1 cells (Invitrogen K1219) were washed with assay media (97% OPTIMEM/0.5% dialyzed FBS/0.1 mM NEAA/1 mM Na pyr/P/S) and seeded in the same media at 5×10^5 cell/mL in T150 flask. After 16 hour incubation, cells were seeded at 2×10^5 cell/well in 50 μl volume, into Costar, clear bottom, 96-well assay plates. Serial dilutions of compounds were added to the plates with final DMSO concentration at 0.5% and GM-CSF at 2 ng/mL and the plates were then incubated at 30° C. and 5% CO2 for 4 hours. The plates were brought to room temperature before adding Substrate Mixture according to manufacturer's protocol (Invitrogen, Catalog #K1085). The assay plates containing the substrate mixture were incubated in the dark at room temperature for 2 hours. Blue and green fluorescence was measured with excitation at 409 nm and emission at 460 nm (for blue) and excitation at 409 nm and emission at 530 nm (for green) using Spectra Max Gemini EM.

[2] = target: T1, JAK2 (Homo sapiens, UniProt O60674); assay: Competition binding assay to determine Kd against JAK kinases: JAK2
T1 construct: made in house
Procedure: (§1) Competition binding assays used herein were developed, validated and performed as described in Fabian et al., Nature Biotechnology 2005, 23, 329-336. Kinases were produced as fusions to T7 phage (See, Fabian et al. or WO04/015142) or alternatively, the kinases were expressed in HEK-293 cells and subsequently tagged with DNA for PCR detection (See, WO08/005,310). For the binding assays, streptavidin-coated magnetic beads were treated with biotinylated affinity ligands for 30 min at rt to generate affinity resins. The liganded beads were blocked with excess biotin and washed with blocking buffer (SeaBlock (Pierce), 1% BSA, 0.05% Tween 20, 1 mM DTT) to remove unbound ligand and to reduce non-specific binding. Binding reactions were assembled by combining kinase, liganded affinity beads, and test compounds in 1× binding buffer (20% SeaBlock, 0.17×PBS, 0.05% Tween 20, 6 mM DTT). Test compounds were prepared as 100× stocks in DMSO and rapidly diluted into the aqueous environment. DMSO was added to control assays lacking a test compound. Primary screen interactions were performed in polypropylene 384-well plates in a final volume of 34 μL, while Kd determinations were performed in polystyrene 96-well plates in a final volume of 135 μL. The assay plates were incubated at room temperature with shaking for 1 hour, long enough for binding reactions to reach equilibrium, and the affinity beads were washed extensively with wash buffer (1×PBS, 0.05% Tween 20) to remove unbound protein. The beads were then resuspended in elution buffer (1×PBS, 0.05% Tween 20, 2 μM non-biotinylated affinity ligand) and incubated at room temperature with shaking for 30 min. The kinase concentration in the eluates was measured by quantitative PCR. Each kinase was tested individually against each compound. Kds were determined using eleven serial threefold dilutions. A selectivity score, which is a quantitative measure of selectivity of a compound against a panel of enzymes, may be calculated for a compound by dividing the number of enzymes for which a compound meets a set criteria, (for example, a binding constant of 100 nM or less), by the total number of enzymes tested.

[3] = target: T2, JAK3 (Homo sapiens, UniProt P52333); assay: Competition binding assay to determine Kd against JAK kinases: JAK3
T2 construct: made in house
T2 sequence (P52333 1-1124): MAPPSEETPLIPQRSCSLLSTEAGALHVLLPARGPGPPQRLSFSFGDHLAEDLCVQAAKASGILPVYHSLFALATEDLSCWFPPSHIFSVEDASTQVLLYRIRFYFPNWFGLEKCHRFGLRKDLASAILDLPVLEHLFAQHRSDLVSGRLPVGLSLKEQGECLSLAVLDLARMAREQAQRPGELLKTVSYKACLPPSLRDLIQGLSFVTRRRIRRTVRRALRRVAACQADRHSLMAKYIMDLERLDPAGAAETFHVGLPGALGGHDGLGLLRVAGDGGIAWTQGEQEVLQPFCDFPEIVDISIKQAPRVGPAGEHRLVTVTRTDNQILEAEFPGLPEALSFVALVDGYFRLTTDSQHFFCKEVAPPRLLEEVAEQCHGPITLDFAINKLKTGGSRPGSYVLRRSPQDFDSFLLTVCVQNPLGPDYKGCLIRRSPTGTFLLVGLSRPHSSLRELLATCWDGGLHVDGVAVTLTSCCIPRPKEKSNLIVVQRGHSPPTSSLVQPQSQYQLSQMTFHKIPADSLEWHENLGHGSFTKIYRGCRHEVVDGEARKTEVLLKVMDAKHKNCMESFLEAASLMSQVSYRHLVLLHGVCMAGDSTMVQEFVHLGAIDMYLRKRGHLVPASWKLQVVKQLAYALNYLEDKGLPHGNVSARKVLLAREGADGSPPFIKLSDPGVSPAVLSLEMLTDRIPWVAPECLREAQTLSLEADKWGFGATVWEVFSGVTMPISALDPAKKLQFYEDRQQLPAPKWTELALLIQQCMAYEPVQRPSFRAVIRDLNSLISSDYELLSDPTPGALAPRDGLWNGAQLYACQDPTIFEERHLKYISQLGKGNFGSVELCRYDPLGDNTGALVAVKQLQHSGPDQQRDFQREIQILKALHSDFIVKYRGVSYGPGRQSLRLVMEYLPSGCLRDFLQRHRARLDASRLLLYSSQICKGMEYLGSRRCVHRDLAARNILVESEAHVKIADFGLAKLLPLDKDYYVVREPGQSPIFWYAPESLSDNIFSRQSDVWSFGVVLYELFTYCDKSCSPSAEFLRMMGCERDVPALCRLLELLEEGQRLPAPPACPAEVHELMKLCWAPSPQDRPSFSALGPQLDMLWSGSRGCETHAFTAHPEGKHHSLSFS
Procedure: as §1

[4] = target: T3, TYK2 (Homo sapiens, UniProt P29597); assay: Competition binding assay to determine Kd against JAK kinases: TYK2
T3 construct: made in house
Procedure: as §1

[5] = tested on: panel of distinct kinases excluding mutant variants, typically 359 or 386 kinases; assay: Kinase selectivity score S10 from competition binding panel; conditions: compound at 10 μM; fraction of kinases with inhibition of 90% or greater
Procedure: as §1

T3 sequence (P29597 whole entry): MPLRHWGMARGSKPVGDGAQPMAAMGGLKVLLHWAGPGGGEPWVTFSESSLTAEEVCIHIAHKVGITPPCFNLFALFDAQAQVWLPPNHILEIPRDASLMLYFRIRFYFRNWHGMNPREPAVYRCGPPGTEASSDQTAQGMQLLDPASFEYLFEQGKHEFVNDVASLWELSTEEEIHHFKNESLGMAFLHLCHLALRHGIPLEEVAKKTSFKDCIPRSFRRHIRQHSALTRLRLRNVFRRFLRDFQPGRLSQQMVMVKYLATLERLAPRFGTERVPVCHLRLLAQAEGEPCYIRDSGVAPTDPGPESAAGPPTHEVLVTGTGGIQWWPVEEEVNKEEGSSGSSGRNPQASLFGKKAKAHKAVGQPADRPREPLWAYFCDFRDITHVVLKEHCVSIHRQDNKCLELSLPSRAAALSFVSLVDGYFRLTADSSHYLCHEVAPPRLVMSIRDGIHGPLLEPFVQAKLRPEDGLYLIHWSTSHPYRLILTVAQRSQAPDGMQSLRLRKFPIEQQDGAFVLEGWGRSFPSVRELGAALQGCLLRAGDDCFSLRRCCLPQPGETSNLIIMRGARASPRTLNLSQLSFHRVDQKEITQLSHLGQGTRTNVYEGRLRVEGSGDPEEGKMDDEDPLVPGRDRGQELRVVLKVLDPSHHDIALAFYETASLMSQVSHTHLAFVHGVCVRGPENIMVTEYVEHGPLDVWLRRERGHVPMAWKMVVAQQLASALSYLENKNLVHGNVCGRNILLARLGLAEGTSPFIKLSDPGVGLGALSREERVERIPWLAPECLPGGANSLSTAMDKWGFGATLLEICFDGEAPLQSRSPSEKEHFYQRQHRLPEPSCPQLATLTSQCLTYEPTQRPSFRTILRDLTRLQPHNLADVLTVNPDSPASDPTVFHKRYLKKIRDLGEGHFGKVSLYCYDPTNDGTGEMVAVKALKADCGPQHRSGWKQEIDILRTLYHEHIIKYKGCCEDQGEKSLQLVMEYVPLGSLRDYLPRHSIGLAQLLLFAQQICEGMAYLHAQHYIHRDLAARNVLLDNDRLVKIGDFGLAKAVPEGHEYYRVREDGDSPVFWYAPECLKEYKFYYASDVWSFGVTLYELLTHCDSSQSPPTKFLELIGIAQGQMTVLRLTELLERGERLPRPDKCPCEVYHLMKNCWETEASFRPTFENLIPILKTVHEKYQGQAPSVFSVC
T1 sequence (O60674 whole entry): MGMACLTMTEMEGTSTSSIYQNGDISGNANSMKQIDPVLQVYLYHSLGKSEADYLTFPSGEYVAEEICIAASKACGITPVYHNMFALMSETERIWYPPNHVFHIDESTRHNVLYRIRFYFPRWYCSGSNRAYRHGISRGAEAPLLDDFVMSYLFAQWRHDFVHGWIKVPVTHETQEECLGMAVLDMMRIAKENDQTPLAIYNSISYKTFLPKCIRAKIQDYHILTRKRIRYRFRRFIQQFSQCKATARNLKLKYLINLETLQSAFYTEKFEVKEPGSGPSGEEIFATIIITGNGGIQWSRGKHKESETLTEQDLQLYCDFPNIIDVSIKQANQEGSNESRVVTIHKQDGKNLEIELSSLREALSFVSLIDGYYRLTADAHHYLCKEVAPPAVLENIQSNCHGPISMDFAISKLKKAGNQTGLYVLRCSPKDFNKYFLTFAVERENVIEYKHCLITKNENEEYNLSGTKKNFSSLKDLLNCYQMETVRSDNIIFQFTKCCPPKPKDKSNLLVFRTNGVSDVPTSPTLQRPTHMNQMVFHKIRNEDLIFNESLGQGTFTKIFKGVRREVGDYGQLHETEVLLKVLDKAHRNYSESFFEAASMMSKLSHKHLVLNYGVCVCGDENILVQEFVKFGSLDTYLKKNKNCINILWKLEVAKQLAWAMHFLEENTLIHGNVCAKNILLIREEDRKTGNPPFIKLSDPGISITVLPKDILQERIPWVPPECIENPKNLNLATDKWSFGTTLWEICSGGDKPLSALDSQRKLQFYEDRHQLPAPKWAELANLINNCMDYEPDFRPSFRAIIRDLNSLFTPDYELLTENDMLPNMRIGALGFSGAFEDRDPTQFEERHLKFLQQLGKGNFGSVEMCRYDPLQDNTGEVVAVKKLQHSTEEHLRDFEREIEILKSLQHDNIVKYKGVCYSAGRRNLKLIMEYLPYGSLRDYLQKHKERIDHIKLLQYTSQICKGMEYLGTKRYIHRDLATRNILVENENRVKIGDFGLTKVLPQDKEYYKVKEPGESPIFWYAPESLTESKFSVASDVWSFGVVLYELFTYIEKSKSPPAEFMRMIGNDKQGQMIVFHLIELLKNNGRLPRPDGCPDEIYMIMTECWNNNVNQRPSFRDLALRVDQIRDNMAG

COc1cc(Nc2nc(S(=O)(=O)c3ccc(F)cc3)cc3ccccc23)n[nH]1 [Example 15, 3-(4-fluorophenylsulfonyl)-N-(5-methoxy-1H-pyrazol-3-yl)isoquinolin-1-amine]
IC50 [1]: ≤ 100 nM | Kd [2]: ≤ 5 nM | Kd [3]: ≤ 10 nM | Kd [4]: ≤ 10 nM | S-Score: S(10) at 10 μM [5]: D (D > 0.5)

Source: patent US20130296363A1, “QUINOLINE AND ISOQUINOLINE DERIVATIVES FOR USE AS JAK MODULATORS” (AMBIT BIOSCIENCES CORPORATION, priority 2010, published 2013)
